Data from ChEMBL document CHEMBL1201862, “PubChem BioAssay data set” (2004).
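These data come from cells grown in 96-well plates and exposed to compound for 48 hours at five concentrations. Here, GI50 denotes the concentration required for 50% inhibition of growth.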 Active and inactive are the calls of the source. No stated cut-off is given here; in the data, active = GI50 up to about 1.1 µM and inactive = higher.

Columns and labels:
Assay in all cases: inhibition of tumour cell growth, NCI panel, 48 h
[1] = test system: IGROV-1
[2] = test system: SF-539
[3] = test system: T47D
[4] = test system: M14
[5] = test system: HCT-15
[6] = test system: RPMI-8226
[7] = test system: SR
[8] = test system: HCT-116
[9] = test system: 786-0
[10] = test system: NCI-H226
[11] = test system: PC-3
[12] = test system: SNB-75
[13] = test system: TK-10
[14] = test system: SF-268
[15] = test system: NCI-H23
[16] = test system: CCRF-CEM
[17] = test system: SK-MEL-28
[18] = test system: BT-549
[19] = test system: SK-MEL-5
[20] = test system: KM12

SMILES | GI50 [1] | GI50 [2] | GI50 [3] | GI50 [4] | GI50 [5] | GI50 [6] | GI50 [7] | GI50 [8] | GI50 [9] | GI50 [10] | GI50 [11] | GI50 [12] | GI50 [13] | GI50 [14] | GI50 [15] | GI50 [16] | GI50 [17] | GI50 [18] | GI50 [19] | GI50 [20]
Nn1c(Cc2ccccc2)n[nH]c1=O | > 100 µM (inactive) | > 100 µM (inactive) | > 100 µM (inactive) | > 100 µM (inactive) | > 100 µM | > 100 µM (inactive) | > 100 µM (inactive) | > 100 µM (inactive) | > 100 µM (inactive) | > 100 µM (inactive) | > 100 µM (inactive) | > 100 µM (inactive) | > 100 µM (inactive) | > 100 µM (inactive) | > 100 µM (inactive) | > 100 µM (inactive) | > 100 µM (inactive) | > 100 µM (inactive) | > 100 µM (inactive) | > 100 µM (inactive)
COc1ccc(C(C)c2cc3c(cc2OC)OCO3)cc1 (stereo not given) | 0.104 µM (active) | 0.1 µM (active) | 2.08 µM (inactive) | 0.0738 µM (active) | 0.0723 µM | 0.122 µM (active) | 0.881 µM (active) | 0.111 µM (active) | 0.098 µM (active) | 0.416 µM (active) | 0.0715 µM (active) | 0.06 µM (active) | 8.95 µM (inactive) | 0.614 µM (active) | 0.169 µM (active) | 0.131 µM (active) | 2.33 µM (inactive) | 51.8 µM (inactive) | 0.0659 µM (active) | 0.119 µM (active)
CC(=O)Nc1ccc(C(=O)NN2C(=O)C(Cl)C2c2ccc(Cl)cc2)cc1 (stereo not given) | 37.3 µM (inactive) | 21.6 µM (inactive) | > 100 µM (inactive) | > 100 µM (inactive) | > 100 µM | > 100 µM (inactive) | > 100 µM (inactive) | > 100 µM (inactive) | 18.7 µM (inactive) | > 57.4 µM (inactive) | > 100 µM (inactive) | 16.1 µM (inactive) | > 100 µM (inactive) | 23.3 µM (inactive) | 44.8 µM (inactive) | > 100 µM (inactive) | 52.5 µM (inactive) | 72.6 µM (inactive) | > 100 µM (inactive) | > 100 µM (inactive)
O=C(c1ccccc1)c1ccc2[nH]c(-c3c(Cl)c(Cl)c(Cl)c(Cl)c3-c3nnc(-c4ccccc4)o3)nc2c1 | 29.5 µM (inactive) | 19.4 µM (inactive) | 23.9 µM (inactive) | 28.2 µM (inactive) | 7.01 µM | 12.4 µM (inactive) | 4.06 µM (inactive) | 27.4 µM (inactive) | 36.6 µM (inactive) | 22.8 µM (inactive) | 20.7 µM (inactive) | 8.81 µM (inactive) | 51.1 µM (inactive) | 31.4 µM (inactive) | 31.7 µM (inactive) | 46.3 µM (inactive) | > 100 µM (inactive) | 46 µM (inactive) | 6.7 µM (inactive) | 22.3 µM (inactive)
O=C(Nc1sccc1S(=O)(=O)c1ccc(Cl)cc1)c1ccc(Cl)cc1 | > 100 µM (inactive) | 39.9 µM (inactive) | > 100 µM (inactive) | > 100 µM (inactive) | > 100 µM | > 100 µM (inactive) | > 100 µM (inactive) | > 100 µM (inactive) | 52.7 µM (inactive) | > 100 µM (inactive) | 25.9 µM (inactive) | 31.8 µM (inactive) | 50.8 µM (inactive) | 65.9 µM (inactive) | 68.5 µM (inactive) | > 100 µM (inactive) | > 100 µM (inactive) | > 100 µM (inactive) | 74.3 µM (inactive) | > 100 µM (inactive)
N#Cc1ccnc(C(=O)N2CCCC2C(=O)O)c1 (stereo not given) | > 100 µM (inactive) | > 100 µM (inactive) | > 100 µM (inactive) | > 100 µM (inactive) | > 100 µM | > 100 µM (inactive) | > 100 µM (inactive) | > 100 µM (inactive) | > 100 µM (inactive) | > 100 µM (inactive) | > 100 µM (inactive) | > 100 µM (inactive) | > 100 µM (inactive) | > 100 µM (inactive) | > 100 µM (inactive) | > 100 µM (inactive) | > 100 µM (inactive) | > 100 µM (inactive) | > 100 µM (inactive) | > 100 µM (inactive)
CC(=O)OC1CC(n2cc(F)c(=O)[nH]c2=O)OC1CO (stereo not given) | > 61.7 µM (inactive) | 0.0418 µM (active) | 12.1 µM (inactive) | 2.16 µM (inactive) | 16.1 µM | 21.9 µM (inactive) | 0.604 µM (active) | 2.51 µM (inactive) | 0.494 µM (active) | 49.1 µM (inactive) | 16.9 µM (inactive) | 3.98 µM (inactive) | 15.9 µM (inactive) | 0.0807 µM (active) | 2 µM (inactive) | 0.117 µM (active) | 15.6 µM (inactive) | 5.5 µM (inactive) | 1.49 µM (inactive) | > 93.3 µM (inactive)
C[N+](C)(C)CC(=O)N/N=C(\Cc1nc2ccc([N+](=O)[O-])cc2nc1O)C(=O)Nc1nc2ccc([N+](=O)[O-])cc2s1 | 23.5 µM (inactive) | 31.8 µM (inactive) | 21.9 µM (inactive) | 55.1 µM (inactive) | 28 µM | 34.5 µM (inactive) | 44.1 µM (inactive) | 51.9 µM (inactive) | 93.8 µM (inactive) | 25.4 µM (inactive) | 27.1 µM (inactive) | 21.5 µM (inactive) | 67.6 µM (inactive) | 34 µM (inactive) | 30.7 µM (inactive) | 40.9 µM (inactive) | > 100 µM (inactive) | 29.3 µM (inactive) | 37.3 µM (inactive) | 45.2 µM (inactive)
CCCCCC/C=C\CCCCCCCCCC1=CC(=O)C=C(OC)C1=O [IRISQUINONE A] | 2.23 µM (inactive) | 2.05 µM (inactive) | 2.23 µM (inactive) | 4.19 µM (inactive) | 2.1 µM | 2.21 µM (inactive) | 2.72 µM (inactive) | 3.43 µM (inactive) | 4.68 µM (inactive) | 2.52 µM (inactive) | 1.81 µM (inactive) | 2.43 µM (inactive) | 6.05 µM (inactive) | 5.93 µM (inactive) | 3.37 µM (inactive) | 1.57 µM (inactive) | 11.5 µM (inactive) | 2.16 µM (inactive) | 2.54 µM (inactive) | 3.75 µM (inactive)
NC(Cc1nnn[nH]1)C(=O)O (stereo not given) | > 100 µM (inactive) | > 100 µM (inactive) | > 100 µM (inactive) | > 100 µM (inactive) | > 100 µM | > 100 µM (inactive) | > 100 µM (inactive) | > 100 µM (inactive) | > 100 µM (inactive) | > 100 µM (inactive) | > 100 µM (inactive) | > 100 µM (inactive) | > 100 µM (inactive) | > 100 µM (inactive) | > 100 µM (inactive) | > 100 µM (inactive) | > 100 µM (inactive) | > 100 µM (inactive) | > 100 µM (inactive) | > 100 µM (inactive)
